Source: patent US10906905B2, “Five-membered heteroaryl ring bridged ring derivative, preparation method therefor and medical use thereof” (Jiangsu Hengrui Medicine Co., Ltd., priority 2016, dated 2021)
Read-outs that look alike come from different tables or passages of the source.

Key:
TGFβRI kinase ALK5 = TGFβRI kinase ALK5 (Homo sapiens (Human), UniProt P36897); assay: Inhibition of TGFβRI kinase ALK5 activity (TGFβRI kinase assay kit, ADP-Glo); format: biochemical; conditions: ATP 50 μM; read-out: IC50 of inhibition effect on TGFβRI kinase ALK5 activity
Protocol: The inhibition effect of TGFβRI kinase activity in vitro was determined by the following method.
The inhibition effect of the compounds of the present invention on TGFβRI kinase ALK5 activity was determined by the following experimental method:
TGFβRI kinase assay kit (V4093, Promega) was used to assay enzyme activity. 2 μl of enzyme solution (the final concentration of enzyme in the reaction system was 2 ng/μL) formulated with reaction buffer (40 mM Tris pH 7.5, 20 mM MgCl2, 0.1 mg/ml BSA), 1 μl of a 3-fold gradient dilution of the compounds dissolved in 5% DMSO, and 2 μl of a mixed solution of ATP and TGFβRI substrate peptide (the final concentration of ATP was 50 μM, and the final concentration of substrate was 0.2 μg/μL) were added successively to a 384-well plate (4514, Corning). After reaction at 27° C. for 2.5 hours, 5 μl of ADP-Glo solution in the kit was added to each well, then the plate was placed at 27° C. for 40 minutes. 10 μl of kinase assay reagent was then added to each well, then the plate was placed at 27° C. for 30 minutes. The chemiluminescence signal values were measured with a Victor 3 (PerkinElmer) multi-function microplate reader. The IC50 values of the compounds for enzyme inhibition were calculated using Graphpad prism software based on each concentration of the compound and the corresponding signal value thereof.

[1] = tested on: Smad signaling pathway of TGFβRI; assay: Inhibition of Smad signaling pathway of TGFβRI (3TP-lux luciferase reporter in HepG2 cell); format: cell-based; conditions: Homo sapiens, read-out: IC50 on the inhibition of Smad signaling pathway of TGFβRI
Protocol: The inhibition effect of the compounds of the present invention on Smad signaling pathway of TGFβRI was determined by the following in vitro test.
The inhibition effect of the compounds of the present invention on Smad signaling pathway of TGFβRI was determined by the following experimental method:
The seeding density is 2.5×10^4 cells/well. The cells were incubated overnight at 37° C., 5% CO2. Each well was replaced with fresh EMEM medium containing 10% FBS. […] The cells were further incubated for 24 hours at 37° C., 5% CO2. Each well was replaced with 90 μL of EMEM medium containing 0.5% FBS, then the cells were starved for 6 hours. The compounds were formulated as a 20 mM stock solution, which was diluted in gradient to a 400× concentration with 100% DMSO, and further 40-fold diluted with EMEM containing 0.5% FBS. The cell culture plate was taken out, then 10 μl of diluted compound or control (0.25% DMSO) was added to each well respectively. The plate was shaken gently, then incubated for 18 hours in an incubator at 37° C., 5% CO2. Finally, 100 μl of detection reagent ONE-Glo™ Luciferase Assay (E6110, Promega) was added to each well, and the plate was placed in dark at room temperature for 10 minutes. The chemiluminescence signal values were measured with a Victor 3.0 (PerkinElmer). The IC50 values of the compounds were calculated using Graphpad Prism software based on each concentration of the compound and the corresponding signal value thereof.

[2] = HepG2 cell, 3TP-lux plasmid, 18 hours

Sequence of TGFβRI kinase ALK5 (P36897 34-503): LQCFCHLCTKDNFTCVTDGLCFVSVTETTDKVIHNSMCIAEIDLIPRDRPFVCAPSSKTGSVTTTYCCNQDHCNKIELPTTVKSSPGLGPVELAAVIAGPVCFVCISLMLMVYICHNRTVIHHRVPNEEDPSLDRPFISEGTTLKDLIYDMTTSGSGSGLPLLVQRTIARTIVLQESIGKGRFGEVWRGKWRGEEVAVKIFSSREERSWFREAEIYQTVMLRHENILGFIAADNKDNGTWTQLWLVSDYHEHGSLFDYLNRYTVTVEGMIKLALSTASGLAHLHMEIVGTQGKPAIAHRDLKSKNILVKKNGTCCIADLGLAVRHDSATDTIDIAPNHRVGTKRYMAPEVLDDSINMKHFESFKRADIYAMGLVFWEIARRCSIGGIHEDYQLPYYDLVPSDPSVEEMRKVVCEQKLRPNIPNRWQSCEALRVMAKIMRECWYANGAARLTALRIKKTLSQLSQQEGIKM

Structure (SMILES)	IC50 (TGFβRI kinase ALK5) [µM]	IC50 [1, 2] [µM]	IC50 ([1]; HepG2, 18 h) [µM]
Cc1cccc(-c2nc3n(c2-c2ccnc4ccc(C(N)=O)cc24)C2CCC3C2)n1 (centres unmarked) [Example 29, 4-(2-(6-Methylpyridin-2-yl)-5,6,7,8-tetrahydro-5,8-methanoimidazo[1,2-a]pyridin-3-yl) quinoline-6-carboxamide]	0.085	–	–
CS(=O)(=O)c1ccc(-c2cc(-c3c(-c4ccccn4)nc4n3[C@H]3CC[C@@H]4C3)ccn2)cc1 [Example 46-1, (5S,8R)-3-(2-(4-(Methylsulfonyl)phenyl)pyridin-4-yl)-2-(pyridin-2-yl)-5,6,7,8-tetrahydro-5,8-methanoimidazo[1,2-a]pyridine]	0.034	0.079	–
Cc1cccc(-c2nc3n(c2-c2ccc4nccc(OC5CCNCC5)c4c2)C2CCC3C2)n1 (centres unmarked) [Example 15, 2-(6-Methylpyridin-2-yl)-3-(4-(piperidin-4-yloxy)quinolin-6-yl)-5,6,7,8-tetrahydro-5,8-methanoimidazo[1,2-a]pyridine]	0.06	–	–
Cc1cccc(-c2nc3n(c2-c2ccnc(-c4ccc(C(=O)NC5CCOCC5)cc4)c2)C2CCC3C2)n1 (centres unmarked) [Example 17, 4-(4-(2-(6-Methylpyridin-2-yl)-5,6,7,8-tetrahydro-5,8-methanoimidazo[1,2-a]pyridin-3-yl)pyridin-2-yl)-N-(tetrahydro-2H-pyran-4-yl)benzamide]	0.038	–	–
NC(=O)c1ccc(-c2cc(-c3c(-c4ccc(F)cn4)nc4n3[C@H]3CC[C@@H]4C3)ccn2)cc1 [Example 41-1, 4-(4-((5S,8R)-2-(5-Fluoropyridin-2-yl)-5,6,7,8-tetrahydro-5,8-methanoimidazo[1,2-a]pyridin-3-yl)pyridin-2-yl)benzamide]	0.028	–	–
Cc1cccc(-c2nn3c(c2-c2ccnc(NCCO)c2)C2CCC3CC2)n1 [Example 37, 2-((4-(2-(6-Methylpyridin-2-yl)-4,5,6,7-tetrahydro-4,7-ethanopyrazolo[1,5-a]pyridin-3-yl)pyridin-2-yl)amino)ethanol]	–	0.061	–
Cc1cccc(-c2nc3n(c2-c2ccnc(Nc4ccc(S(N)(=O)=O)cc4)c2)C2CCC3C2)n1 (centres unmarked) [Example 14, 4-((4-(2-(6-Methylpyridin-2-yl)-5,6,7,8-tetrahydro-5,8-methanoimidazo[1,2-a]pyridin-3-yl)pyridin-2-yl)amino)benzenesulfonamide]	0.031	–	0.081
Cc1cccc(-c2nc3n(c2-c2ccnc(NC(=O)OC(C)(C)C)c2)C2CCC3C2)n1 (centres unmarked) [Example 31, Tert-butyl (4-(2-(6-methylpyridin-2-yl)-5,6,7,8-tetrahydro-5,8-methanoimidazo[1,2-a]pyridin-3-yl)pyridin-2-yl)carbamate]	0.055	–	–
Cc1cccc(-c2nc3n(c2-c2ccnc(NCCO)c2)C2CCC3C2)n1 (centres unmarked) [Example 5, 2-((4-(2-(6-Methylpyridin-2-yl)-5,6,7,8-tetrahydro-5,8-methanoimidazo[1,2-a]pyridin-3-yl)pyridin-2-yl)amino)ethanol]	0.059	0.039	–
Cc1cccc(-c2nc3n(c2-c2ccnc(N)c2)C2CCC3C2)n1 (centres unmarked) [Example 32, 4-(2-(6-Methylpyridin-2-yl)-5,6,7,8-tetrahydro-5,8-methanoimidazo[1,2-a]pyridin-3-yl)pyridin-2-amine]	0.009	–	0.008
Cc1cccc(-c2nc3n(c2-c2ccc(=O)n(C)c2)C2CCC3C2)n1 (centres unmarked) [Example 20, 1-Methyl-5-(2-(6-methylpyridin-2-yl)-5,6,7,8-tetrahydro-5,8-methanoimidazo[1,2-a]pyridin-3-yl)pyridin-2(1H)-one]	–	0.053	–
Cc1cccc(-c2nc3n(c2-c2ccnc(-c4ccc(S(N)(=O)=O)cc4)c2)[C@H]2CC[C@@H]3C2)n1 [Example 13-1, 4-(4-((5S,8R)-2-(6-Methylpyridin-2-yl)-5,6,7,8-tetrahydro-5,8-methanoimidazo[1,2-a]pyridin-3-yl)pyridin-2-yl)benzenesulfonamide]	0.011	0.037	–
Cc1cccc(-c2nn3c(c2-c2ccnc4ccc(C(N)=O)cc24)C2CCC3C2)n1 (centres unmarked) [Example 35, 4-(2-(6-Methylpyridin-2-yl)-4,5,6,7-tetrahydro-4,7-methanopyrazolo[1,5-a]pyridin-3-yl)quinoline-6-carboxamide]	0.012	–	–
Cc1cccc(-c2nc3n(c2-c2ccnc(-c4cnn(S(C)(=O)=O)c4)c2)C2CCC3C2)n1 (centres unmarked) [Example 43, 2-(6-Methylpyridin-2-yl)-3-(2-(1-(methylsulfonyl)-1H-pyrazol-4-yl)pyridin-4-yl)-5,6,7,8-tetrahydro-5,8-methanoimidazo[1,2-a]pyridine]	0.021	–	0.011
Cc1cccc(-c2nn3c(c2-c2ccnc4ccc(C(N)=O)cc24)C2CCC3CC2)n1 [Example 34, 4-(2-(6-Methylpyridin-2-yl)-4,5,6,7-tetrahydro-4,7-ethanopyrazolo[1,5-a]pyridin-3-yl)quinoline-6-carboxamide]	0.012	–	–
Cc1cccc(-c2nc3n(c2-c2ccnc(-c4ccc(C(=O)O)cc4)c2)C2CCC3C2)n1 (centres unmarked) [Example 19, 4-(4-(2-(6-Methylpyridin-2-yl)-5,6,7,8-tetrahydro-5,8-methanoimidazo[1,2-a]pyridin-3-yl)pyridin-2-yl)benzoic acid]	0.087	–	–
Cc1cccc(-c2nc3n(c2-c2ccnc(NC[C@H](C)O)c2)[C@H]2CC[C@@H]3C2)n1 [Example 18-1, (S)-1-((4-((5S,8R)-2-(6-Methylpyridin-2-yl)-5,6,7,8-tetrahydro-5,8-methanoimidazo[1,2-a]pyridin-3-yl)pyridin-2-yl)amino)propan-2-ol]	0.08	0.088	–
NC(=O)c1nnc2cc(-c3c(-c4ccccn4)nc4n3[C@H]3CC[C@@H]4C3)ccn12 [Example 47-1, 7-((5S,8R)-2-(Pyridin-2-yl)-5,6,7,8-tetrahydro-5,8-methanoimidazo[1,2-a]pyridin-3-yl)-[1,2,4]triazolo[4,3-a]pyridine-3-carboxamide]	0.039	0.053	–
Cc1cccc(-c2nc3n(c2-c2ccnc(OCCO)c2)C2CCC3C2)n1 (centres unmarked) [Example 26, 2-((4-(2-(6-Methylpyridin-2-yl)-5,6,7,8-tetrahydro-5,8-methanoimidazo[1,2-a]pyridin-3-yl)pyridin-2-yl)oxy)ethanol]	–	0.086	–
Cc1cccc(-c2nc3n(c2-c2ccnc(-c4ccc(S(C)(=O)=O)cc4)c2)C2CCC3C2)n1 (centres unmarked) [Example 3, 2-(6-Methylpyridin-2-yl)-3-(2-(4-(methylsulfonyl)phenyl)pyridin-4-yl)-5,6,7,8-tetrahydro-5,8-methanoimidazo[1,2-a]pyridine]	–	0.058	–
Cc1cccc(-c2nc3n(c2-c2ccc4nnc(C(N)=O)n4c2)[C@@H]2CC[C@H]3C2)n1 [Example 2-2, 6-((5R,8S)-2-(6-Methylpyridin-2-yl)-5,6,7,8-tetrahydro-5,8-methanoimidazo[1,2-a]pyridin-3-yl)[1,2,4]triazolo[4,3-a]pyridine-3-carboxamide]	0.003	0.036	–
Cc1cccc(-c2nc3n(c2-c2ccnc(NCCO)c2)[C@H]2CC[C@@H]3C2)n1 [Example 5-1, 2-((4-((5S,8R)-2-(6-Methylpyridin-2-yl)-5,6,7,8-tetrahydro-5,8-methanoimidazo[1,2-a]pyridin-3-yl)pyridin-2-yl)amino)ethanol]	0.046	–	0.075
